The values below come from patent US7879795B2, “Enhancement of tigecycline potency using efflux pump inhibitors” (Mpex Pharmaceuticals, Inc., priority 2004, dated 2011).

≈ marks a conversion by molar mass, not a printed value.

Data set [1] deals with P. aeruginosa, PAM1723, overexpressing the MexAB-OprM efflux pump. In words: Levofloxacin potentiation checkerboard assay (broth microdilution). The data set is classed as cell-based. Particulars: in words. On the procedure: Stock solution was stored at −80° C.
The checkerboard assay was performed in microtiter plates. […] EPIs were diluted in the y axis, each row containing an equal concentration of an EPI. The result of these manipulations was that each well of the microtiter plate contains a unique combination of concentrations of the two agents. The assay was performed in MHB with a final bacterial inoculum of 5×10^5 CFU/ml (from an early-log phase culture). Microtiter plates were incubated during 20 h at 35° C. and were read using a microtiterplate reader (Molecular Devices) at 650 nm as well as visual observation using a microtiter plate-reading mirror.

The nature of data set [2]: Serum levels of compound 3 after administration of acylated forms in rats. The data set is classed as in vivo, rat. Particulars: compound 5 8.4 mg/kg injected, compound 43 10 mg/kg two-hour infusion. On the procedure: Rats were injected with compound 5 (8.4 mg/kg) and serum levels of the parent compound 3 were evaluated after extraction. The serum levels as a function of time are depicted in FIG. 16.
Rats were infused for two hours with compound 43 at 10 mg/kg and serum levels of the parent compound 3 were evaluated after extraction. FIG. 17 depicts the serum levels of compound 3 as a function of time.

The nature of data set [3]: Acute toxicity, minimal lethal dose after IV bolus in mice. The settings on record: IV bolus into tail vein, lethal for at least one of three mice. The data set is classed as in vivo, mouse. On the procedure: Acute toxicity was measured as minimal lethal dose (MLD). MLD is defined as a minimal concentration of a compound that has lethal effect for at least one mouse from the group of three mice after IV bolus injection into the mouse tail vein.

Data set [4] has as its system P. aeruginosa strain PAM1723 overexpressing MexAB-OprM efflux pump. The data set can be described thus: Neutropenic mice thigh model of PA infection. The data set is classed as in vivo. The settings on record: levofloxacin 30 mg/kg SQ, EPI 60 mg/kg IP, 2 hours post-infection. On the procedure:
Efficacy of the EPIs was evaluated in a Neutropenic Mice Thigh Model of P. aeruginosa Infection. Neutropenia was induced by cyclophosphamide 100 mg/kg IP on days 3 and 1 prior to infection. P. aeruginosa strain PAM1723 overexpressing MexAB-OprM efflux pump was grown overnight in Mueller-Hinton Broth (MHB). The next day, the overnight culture was diluted in fresh MHB and was allowed to re-grow to ˜10^8 CFU/mL (OD600˜0.3). The culture was spun down, washed twice with phosphate buffered saline (PBS) and re-suspend in PBS to ˜4×10^6 CFU/mL. Next, this culture was mixed 1:1 with 14% hog-gastric mucin in PBS to give a final inoculum of 2×10^6 CFU/mL. Infection was initiated with injection of 0.1 mL of inoculum (˜2×10^5 CFU/thigh) directly into both thighs of each mouse. Two mice from each treatment group were euthanized at various times after the start of treatment. The thighs were removed aseptically, homogenized in saline, and immediately plated to determine bacterial load (CFU/ml). Treatment was initiated 2 hours post infection.

The conditions of data set [5]: in vivo; cited from earlier work.
The subject of data set [6] is PAM 1032, nalB, MexAB-OprM over-expressed. In words: microbe, parasite or virus in culture. The data set is classed as cell-based, P. aeruginosa. As for the experimental part:
(§1) The ability of compound 21 to increase susceptibility to tigecycline was also assessed. The tigecycline potentiating activity of compound 21 was assessed by the checkerboard assay (Antimicrobial Combinations, Antibiotics in Laboratory Medicine, ed. Victor Lorian, M.D., Fourth edition, 1996, pp 333-338, which is incorporated herein by reference in its entirety) using a broth micro-dilution method performed as recommended by the CSLI (Clinical and Laboratory Standards Institute, formerly NCCLS) guidelines (National Committee for Clinical Laboratory Standards 2003. Methods for Dilution Antimicrobial Susceptibility Tests for Bacteria That Grow Aerobically—Sixth Edition; Approved Standard. NCCLS Document M7-A6, Vol 20 No. 2). In this assay, multiple dilutions of the two drugs, compound 21 and tigecycline, were tested alone and in combination, at concentrations equal to, above and below their respective minimal inhibitory concentrations (MICs). […] The stock solution was further diluted in Mueller Hinton Broth (MHB). Stock solutions were stored at −80° C.
(§2) The checkerboard assay was performed in microtiter plates. Tigecycline was diluted in the x axis, each column containing a single concentration of tigecycline. Compound 21 was diluted in the y axis, each row containing an equal concentration of the EPI. […] The assay was performed in MHB with a final bacterial inoculum of 5×10^5 CFU/ml (from an early-log phase culture). The microtiter plates were incubated for 20 hours at 35° C. and then read using a microtiter plate reader (Molecular Devices) at 650 nm, as well as by visual observation using a microtiter plate-reading mirror.
(§3) P. aeruginosa strain PAM 1032 was grown in Mueller-Hinton Broth (MHB) at 35° C. under constant aeration. After 20 hours, the inoculum was sub-cultured into fresh MHB and allowed to regrow at 35° C., under constant aeration, for 4 hours. The inoculum was adjusted to ca. 4×10^7 CFU/ml by correlation of absorbance at 600 nm with predetermined plate counts. The inoculum was then diluted 2-fold in 14% hog-gastric mucin (Sigma, St. Louis, Mo.) for a final inoculum concentration of 2×10^7 CFU/ml. […] At 0 and 2 hours following infection, tigecycline was administered by the subcutaneous route and compound 21 was administered by the intraperitoneal route.

The test system of data set [7] is PAM 1020, wt. The data set can be described thus: Tigecycline potentiation checkerboard assay, PAM 1020. Particulars: Pseudomonas aeruginosa, read-out: Tigecycline MIC in the presence of Compound 21. The data set is classed as cell-based, P. aeruginosa. As for the experimental part:
as §1, §2

In data set [8] the test system is PAM 1753, MexEF-OprN over-expressed. In words: Tigecycline potentiation checkerboard assay, PAM 1753. The data set is classed as cell-based, P. aeruginosa. Particulars: Pseudomonas aeruginosa, read-out: Tigecycline MIC in the presence of Compound 21. As for the experimental part:
as §1, §2

The subject of data set [9] is Enterobacter cloacae 25. The data set can be described thus: Antibiotic MIC with fixed concentration of compound 21, Enterobacter cloacae 25. The data set is classed as cell-based. Particulars: tigecycline alone.
The test system of data set [10] is Klebsiella pneumonia 73. The data set can be described thus: Antibiotic MIC with fixed concentration of compound 21, Klebsiella pneumonia 73. The data set is classed as cell-based. The settings on record: tigecycline alone. As for the experimental part:
(§4) To further characterize the clinical potential of tigecycline/EPI combinations, the microbiological activity of tigecycline in combination with compound 21 was investigated using clinical isolates of P. aeruginosa and other gram-negative bacteria. In several experiments, described below, the impact of a fixed concentration of compound 21 (2.5 μg/ml) on susceptibility to tigecycline was determined.
(§5) The impact of compound 21 on the activity of tigecycline against representative members of Enterobacteriacaea was also tested.

In data set [11] the test system is PAM 1626, Four pumps non-functional. In words: Tigecycline potentiation checkerboard assay, PAM 1626. The data set is classed as cell-based, P. aeruginosa. The settings on record: Pseudomonas aeruginosa, read-out: Tigecycline MIC in the presence of Compound 21. As for the experimental part: as §1, §2
Data set [12] relates to laboratory strains of P. aeruginosa. In words: Tigecycline susceptibility of laboratory strains of P. aeruginosa over-expressing or lacking efflux pumps. The data set is classed as cell-based. The settings on record: compared to the wild-type strain PAM1020. On the procedure:
as §1, §2

Data set [13] concerns Klebsiella pneumonia. Particulars: cited from earlier work.
For data set [14], the system named is P. aeruginosa strain PAM 1032. In words: Mouse model of P. aeruginosa sepsis infection (tigecycline 50% effective dose). The data set is classed as in vivo. Particulars: mice, tigecycline SC at 0 and 2 hours; Reed and Meunch. On the procedure:
Tigecycline and compound 21 were prepared in sterile 0.9% saline. Seventy Swiss-Webster mice (Harlan laboratories) with body weights ranging from 22 to 25 grams at the start of the study were used. Upon receipt, the animals were housed 5 per cage in a room with a controlled environment and were acclimated to laboratory conditions for at least 24 hours prior to the start of dosing. Animals were provided food and water ad libitum. The health status of the animals was determined during the acclimation period and unhealthy animals were not placed on study. Each animal was identified by marking their tails with indelible ink and each cage was identified by animal, group, and study number.
as §3, with “route. […] The susceptibility of the test strain (P. aeruginosa PAM1032, […] MexAB-OprM) to tigecycline was 4 ug/ml, the susceptibility of the test strain to tigecycline in the presence of 2.5 μg/mL of compound 21 was 0.25 μg/mL.” for “route.”

Data set [15] relates to Citrobacter freundii 13. The data set can be described thus: Antibiotic MIC with fixed concentration of compound 21, Citrobacter freundii 13. The data set is classed as cell-based. The settings on record: tigecycline alone. On the procedure:
as §4, §5

In data set [16] the test system is Enterobacter aerogenes 19. The data set can be described thus: Antibiotic MIC with fixed concentration of compound 21, Enterobacter aerogenes 19. The settings on record: tigecycline alone. The data set is classed as cell-based.
Data set [17] deals with Klebsiella pneumonia 79. In words: Antibiotic MIC with fixed concentration of compound 21, Klebsiella pneumonia 79. The data set is classed as cell-based. The settings on record: tigecycline alone. As for the experimental part:
as §4, §5

Data set [18] concerns 110 clinical isolates of P. aeruginosa. The data set can be described thus: Tigecycline susceptibility of P. aeruginosa clinical isolates with fixed concentration of compound 21. The data set is classed as cell-based. Particulars: tigecycline alone; 110 clinical isolates. On the procedure: as §4
Results from an experiment using 110 clinical isolates of P. aeruginosa are presented in FIG. 1, as the distribution of tigecycline MICs with or without the EPI potentiator.

Data set [19] deals with Strain S41, a clinical isolate. The data set can be described thus: microbe, parasite or virus in culture. The data set is classed as cell-based, P. aeruginosa.
Data set [20] has as its system PAM 2466, mexR1, MexAB-OprM and MexXY-OprM over-expressed. In words: microbe, parasite or virus in culture. The data set is classed as cell-based, P. aeruginosa. Particulars: Pseudomonas aeruginosa, read-out: Tigecycline MIC in the presence of Compound 21. On the procedure:
as §1, §2

In data set [21] the test system is PAM 1723, MexAB-OprM over-expressed, ΔMexCD-OprJ ΔMexEF-OprN. In words: microbe, parasite or virus in culture. The data set is classed as cell-based, P. aeruginosa. Particulars: Pseudomonas aeruginosa, read-out: Tigecycline MIC in the presence of Compound 21. As for the experimental part: as §1, §2
The test system of data set [22] is PAM 1323, mexZ, MexXY-OprM over-expressed, MexAB-OprM low level. In words: microbe, parasite or virus in culture. Particulars: Pseudomonas aeruginosa, read-out: Tigecycline MIC in the presence of Compound 21. The data set is classed as cell-based, P. aeruginosa. As for the experimental part: as §1, §2
Data set [23] deals with PAM 1738, MexCD-OprJ over-expressed, ΔMexAB-OprM ΔMexEF-OprN. In words: microbe, parasite or virus in culture. The data set is classed as cell-based, P. aeruginosa. Particulars: Pseudomonas aeruginosa, read-out: Tigecycline MIC in the presence of Compound 21. As for the experimental part: as §1, §2

As for `N[C@@H](CC(=O)O)C(=O)NCCC[C@H](NC(=O)[C@@H](N)CC(=O)O)C(=O)N[C@H](CCc1ccccc1)C(=O)Nc1cnc2ccccc2c1` [Compound 43, 3-Amino-(S)—N-{4-(S)-(2-(3)-(S)-amino-3-carboxy-propionylamino)-4-[3-phenyl-1-(R)-(quinolin-3-ylcarbamoyl)-propylcarbamoyl]-butyl}-succinamic acid], the “in vitro levofloxacin potentiating activity” value in data set [1] is recorded as “did not have in vitro levofloxacin potentiating activity”. Further, in data set [2], the “metabolism in serum to produce compound 3” value is “readily metabolized”. Also, the “MLD (minimal lethal dose)” value in [3] is reported as 150 mg/kg. In addition, the “bacterial load in thighs, EPI with levofloxacin versus levofloxacin alone” value in data set [4] is reported as “potentiated levofloxacin in vivo”.
Regarding `N=C(N)c1ccc(OCCCCCOc2ccc(C(=N)N)cc2)cc1` [pentamidine], the “incidence of kidney toxicity” value in data set [5] is “above 75%”.
Regarding `CN(C)c1cc(NC(=O)CNC(C)(C)C)c(O)c2c1C[C@H]1C[C@H]3[C@H](N(C)C)C(O)=C(C(N)=O)C(=O)[C@@]3(O)C(O)=C1C2=O` [Tigecycline], in data set [6] (PAM1032, tigecycline alone), the “susceptibility of the test strain to tigecycline” value stood at 4 µg/mL. Further, the MIC in data set [6] (Pseudomonas aeruginosa, read-out: Tigecycline MIC in the presence of Compound 21) turned out to be 0.004 µg/mL; in [7], 0.002 µg/mL; in [8] it was 0.002 µg/mL; in [11], 0.0005 µg/mL; in data set [19] (Pseudomonas aeruginosa, read-out: Tigecycline MIC, alone), 1 µg/mL (≈ 1.71 µM); in data set [20] it was 0.008 µg/mL. Also, the results for the MIC in [21], in data set [22] and in data set [23] were 0.004 µg/mL, 0.004 µg/mL and 0.001 µg/mL, respectively. Moreover, the Tig (MIC) in data set [9] was 2 µg/mL; in data set [10], 2 µg/mL; in data set [15], 4 µg/mL; in [16], 4 µg/mL; in data set [17] it was 4 µg/mL. Moreover, in data set [12], the “increase in susceptibility to tigecycline on deleting all four efflux pumps (PAM1626)” value was 4 fold. For the same compound, the “frequency of emergence of efflux-mediated tigecycline resistance” value in [13] is on record as ~4×10^−8. Moreover, the “50% effective dose of tigecycline alone” value in data set [14] is given as “greater than 200 mg/kg”. The MIC50, Tigecycline in data set [18] was determined as 2 µg/mL. In addition, the MIC90, Tigecycline in data set [18] was determined as 8 µg/mL. Further, the “Mutation Frequency on Tigecycline at 4 μg/ml, alone” value in data set [19] (strain S41, 4× MIC) is 8.3 × 10^−8.
